# According to patent publication US20150141439A1, “PHARMACEUTICAL COMPOSITION FOR THE PREVENTION OR TREATMENT OF BRAIN TUMOR OR TEMODAL RESISTANT GLIOBLASTOMA MULTIFORM COMPRISING AZATHIOPRINE AS AN ACTIVE INGREDIENT” (KOREA RESEARCH INSTITUTE OF CHEMICAL TECHNOLOGY, priority 2012, published 2015):
# Key:
# [1] = system: PC3 Human prostate adenocarcinoma; assay: Secondary cytotoxicity test, PC3; type: cell-based; settings: PC-3
# Method: (§1) Particularly, the cell growth inhibition effect was measured by WST-1 cell proliferation assay [http://www.roche-applied-science.com/PROD_INF/MANUALS/CELL_MAN/apoptosis—087—088.pdf]. The compound of formula 1 was loaded in a 384-well cell culture plate. Three types of glioblastoma multiform cell lines [proneural subtype (559T), mesenchymal subtype (592T), and classical subtype (626T)], normal human astrocytes (NHA), a lung cancer cell line (A549), and a glioblastoma multiform cell line (U87MG) were distributed in the plate at the density of 4.5×10^3 cells/well, and the medium was filled up to make 50 μl per well. At this time, the concentration of the solvent DMSO for the compound of formula 1 was no more than 0.2%. After culturing the cells for 72 hours, 5 mg/ml of WST-1 reagent was added by 5 μl per well, followed by reaction for 3˜4 hours. Then OD450 was measured to investigate the effect of the compound of formula 1 on cell proliferation.
# (§2) To investigate the cell growth inhibition effect of the compound of formula 1 of the present invention (azathioprine) in many different cell lines, secondary cytotoxicity test was performed with the cell lines listed in Table 5 by the same manner as described in Example 1.
# [2] = system: MKN45 Human stomach adenocarcinoma; assay: Secondary cytotoxicity test, MKN45; type: cell-based; settings: MKN-45
# Method: as §1, §2
# [3] = system: normal human astrocytes (NHA); assay: WST-1 cell proliferation assay, NHA; type: cell-based
# Method: as §1
# [4] = system: HepG2 Human hepatocarcinoma; assay: Secondary cytotoxicity test, HepG2; type: cell-based
# Method: as §1, §2
# HaCat Human keratinocyte = assay: Secondary cytotoxicity test, HaCat; type: cell-based
# Method: as §1, §2
# [5] = system: GBM #7 glioblastoma multiform patient originated cells; assay: Neurosphere formation inhibition, GBM #7; type: cell-based, human; parameters: key: S: strong effect; I: intermediate effect; R: rare effect; settings: GBM #7, type B (classical), Azathioprine 1 μM, duration 23 day
# Method: (§3) Particularly, to investigate neurosphere formation, glioblastoma multiform cells were cultured for a certain time and the cells were distributed again in culture vessels, followed by additional culture. Then, the number of newly generated neurospheres was measured. First, the glioblastoma multiform patient originated cells were sub-cultured, which were distributed in a 96-well plate (20, 50, and 200 cells in 50 μl of culture medium/well). 2, 6, and 20 μM of the compound of formula 1 (azathioprine) and the compound of Comparative Example 1 (Temodal) were treated thereto by 50 μl per well to make the final concentrations of 1, 3, and 10 μM. Then, the compound of formula 1 (azathioprine) and the compound of Comparative Example 1 (Temodal) were added to 50 μl of cell culture medium with the same concentrations as the above once a week, which were then cultured for 7˜23 days. When neurosphere was formed at least 50 μm in the control group not treated with the compound, the number of neurospheres in each well was counted to compare the neurosphere formation before and after the treatment of the compound of formula 1 (azathioprine) and the compound of Comparative Example 1 (Temodal).
# (§4) The glioblastoma multiform cells used in this experiment were classified into 4 types, which are type A, type B, type C, and type D, according to the gene expression pattern. […]
# [6] = system: NCI-H23 Human lung adenocarcinoma; assay: Secondary cytotoxicity test, NCI-H23; type: cell-based
# Method: as §1, §2
# GBM (559T) cells = settings: GBM (559T) cell lysate, azathioprine 10 μM, 24 hours later, compared with before the treatment
# [7] = system: GBM #6 glioblastoma multiform patient originated cells; assay: Neurosphere formation inhibition, GBM #6; type: cell-based, human; parameters: key: S: strong effect; I: intermediate effect; R: rare effect; settings: GBM #6, type B (classical), Azathioprine 1 μM, duration 23 day
# Method: as §3, §4
# [8] = system: cells of lung cancer with brain metastasis transplanted in the mouse brain; assay: Animal test with cells of lung cancer with brain metastasis, survival; type: in vivo; settings: azathioprine 2 mg/kg oral every day after day 11, Temodal (TMZ) 65 mg/kg oral 5 days from day 17
# Method: The cells of lung cancer with brain metastasis were obtained from Samsung Hospital (Seoul) and cultured. The cultured cells (2×10^5/5 μl) were transplanted in the mouse brain. 17 days later, Temodal administration (65 mg/kg, oral administration) began, which continued for 5 days. The compound of formula 1 of the present invention (azathioprine) was co-treated to the mouse by oral-administration at the dose of 2 mg/kg every day after 11 days from the transplantation of the cells of lung cancer with brain metastasis in the mouse brain. Then, the average survival period was investigated.
# [9] = system: glioblastoma multiform cells transplanted in the brain of a mouse; assay: Glioblastoma multiform orthotopic animal model, survival; type: in vivo
# Method: Following experiment was performed to investigate the radiosensitizing effect and chemosensitizing effect of the compound of formula 1 (azathioprine) in the glioblastoma multiform orthotopic animal model.
# Particularly, to investigate the resistance against Temodal or radiotherapy in glioblastoma multiform, glioblastoma multiform cells were cultured. The cultured cells (2×10^5/5 μl) were transplanted in the brain of a mouse. 17 days later, the administration of Temodal (65 mg/kg, oral-administration) or radiotherapy (2 Gy) began, which continued for 5 days. The average survival period was investigated. […] For the comparison, the survival period of the group treated with “Avastin”, the well-known anticancer agent, is also presented.
# Glioblastoma multiform, glioblastoma multiform cells were cultured. The cultured cells (2×10^5/5 μl) were transplanted in the brain of a mouse. 17 days later, the administration of Temodal (65 mg/kg, oral-administration) or radiotherapy (2 Gy) began, which continued for 5 days. Unlike the above experiment, the compound of formula 1 of the present invention (azathioprine) was co-treated to the mouse by oral-administration at the dose of 20 mg/kg every day after 11 days from the glioblastoma multiform transplantation in the mouse brain. Then, the average survival period was investigated.
# [10] = system: Hela Human adenocarcinoma; assay: Secondary cytotoxicity test, Hela; type: cell-based
# Method: as §1, §2
# [11] = system: MCF-7 Human breast adenocarcinoma; assay: Secondary cytotoxicity test, MCF-7; type: cell-based; settings: MCF7
# Method: as §1, §2
smiles,measurement,setting,value
"Cn1cnc([N+](=O)[O-])c1Sc1ncnc2nc[nH]c12 [Azathioprine, 6-(1-methyl-4-nitro-1H-imidazol-5-ylthio)-7H-purine]",IC50,[1],6.7 µM
same,IC50,[2],1.2 µM
same,inhibition at 0.032 µM,"[3]; Homo sapiens, Astrocyte, 0.032 μM, 72 hours, read-out: Cell Growth Inhibition (% Inhibition)",1.9%
same,inhibition at 0.1 µM,"[3]; Homo sapiens, Astrocyte, 0.1 μM, 72 hours, read-out: Cell Growth Inhibition (% Inhibition)",5.9%
same,inhibition at 0.32 µM,"[3]; Homo sapiens, Astrocyte, 0.32 μM, 72 hours, read-out: Cell Growth Inhibition (% Inhibition)",11%
same,inhibition at 1 µM,"[3]; Homo sapiens, Astrocyte, 1.0 μM, 72 hours, read-out: Cell Growth Inhibition (% Inhibition)",8.3%
same,inhibition at 3.2 µM,"[3]; Homo sapiens, Astrocyte, 3.2 μM, 72 hours, read-out: Cell Growth Inhibition (% Inhibition)",10.5%
same,inhibition at 10 µM,"[3]; Homo sapiens, Astrocyte, 10 μM, 72 hours, read-out: Cell Growth Inhibition (% Inhibition)",-2.4%
same,GI50,"[3]; Homo sapiens, Astrocyte, 72 hours",> 10 µM
same,toxicity in normal astrocytes,"[3]; WST-1, up to 10 μM",did not cause toxicity
same,IC50,[4],> 10 µM
same,IC50,HaCat Human keratinocyte,6.3 µM
same,inhibition of neurosphere formation,[5],S
same,IC50,[6],4.9 µM
same,"concentrations of azathioprine metabolites (TGMP, MeTIMP, MeTGMP, TIMP) in cell lysate",GBM (559T) cells,significantly raised
same,inhibition of neurosphere formation,[7],S
same,Average Survival Period,[8],63 days
same,Survival Period Extension Rate (%),[8],59-70%
same,Average Survival Period,"[9]; radiotherapy (2 Gy) 5 days from day 17 + azathioprine 20 mg/kg oral every day after day 11, control 28 days",41 days
same,Survival Period Extension Rate (%),"[9]; radiotherapy (2 Gy) 5 days from day 17 + azathioprine 20 mg/kg oral every day after day 11, vs. control",44%
same,IC50,[10],2.9 µM
same,IC50,[11],2.6 µM
